Consider 73 compounds from the RepoRT retention time repository.

A short description of the data set: Waters SunFire C18, 150 × 2.1 mm, 3.5 µm, 25 °C, 0.25 mL/min, estimated dead time 1.3 min; A: water + 0.1% formic acid; B: methanol; gradient (min/%B) 0/5 30/100. Particulars: stereoisomer not certain.
For the compound `CCC12C=CCN3CCc4c(n(c5ccccc45)C(O)(C(=O)OC)C1)C32` (stereo not drawn), the LC retention time was 13 min.

For `COc1cc2c(cc1OC)C13CCN(C)CC45OC4COC4CC(=O)N2C1C4C5CC3=O` (stereo not drawn), the LC retention time is 10.1 min.

Take `CCC1CN2CCC3(C(=O)Nc4ccccc43)C2CC1C(=COC)C(=O)OC` (stereo not drawn): the LC retention time was 16.4 min.

In the case of `C=CC12CN(C)C3C4COC(CC41)C1(C(=O)Nc4ccccc41)C32` (stereo not drawn), the LC retention time is 9.75 min.

On to `C=CC1CN2CCc3c([nH]c4ccccc34)C2CC1CC1c2[nH]c3ccccc3c2CCN1C` (stereo not drawn), for which the LC retention time is 14.8 min.

For the compound `CC=C1C[N+]2([O-])CCC34Cc5cc6c(cc5OC35C2CC1C(C(=O)OC)N5c1ccccc14)NC12CCC3(CC)CCC[N+]1(CCC62O)C3` (stereo not drawn), the LC retention time is 13.4 min.

Take `CC=C1CN2CCC34C(=O)c5cc6c(cc5OC35C2CC1C(C(=O)OC)N5c1ccccc14)NC12CCC3(CC)CCC[N+]1(CCC62O)C3` (stereo not drawn): the LC retention time is 13.8 min.

On to `CCC1CN2CCc3c([nH]c4ccccc34)C2CC1Cc1nccc2c1[nH]c1ccccc12` (stereo not drawn), for which the LC retention time was 14.5 min.

Consider `CCC1CN2CCc3c([nH]c4ccccc34)C2CC1C(=COC)C(=O)OC` (stereo not drawn), for which the LC retention time is 16.8 min.

Take `CCC1NC2CC3(C(=O)N(OC)c4cc(OC)ccc43)C3CC1C2CO3` (stereo not drawn): the LC retention time is 16.3 min.

Regarding `CC=C1CN(C)C2Cc3c(n(C)c4ccccc34)C(=O)CC1C2C(=O)OC` (stereo not drawn), the LC retention time is 16.3 min.

Consider `CCC1(O)CC23CC4N(CCC45C(=C2C(=O)OC)Nc2ccccc25)C13` (stereo not drawn), for which the LC retention time is 14.8 min.

For the compound `CCC1CN(C)C2Cc3c([nH]c4ccccc34)C(c3cc4c5c([nH]c4cc3OC)C3(C(=O)OC)CC4CC(CC)C3N(CC5)C4=O)CC1C2C(=O)OC` (stereo not drawn), the LC retention time is 22.6 min.

`OC1OCC=C2CN3CCC45c6ccccc6NC4C1C2CC35` (stereo not drawn): the LC retention time was 9.62 min.

Take `O=C1CC(O)C2C3CC4N(CCC45c4ccccc4N1C25)CC3=CCO` (stereo not drawn): the LC retention time is 10.1 min.

Take `CC=C1CN2CCC34c5cc(-c6cc7c(cc6OC)C68CCN9CC(=CC)C(CCC96N7C)C8C(=O)OC)c(OC)cc5N(C)C3C2CC1C4C(=O)OC` (stereo not drawn): the LC retention time is 16.9 min.

Turning to `CC=C1CN2C3CC1C(CO)(C(=O)OC)C2Cc1c3[nH]c2ccccc12` (stereo not drawn), the LC retention time was 12.9 min.

`CC=C1CN2CCC34Cc5cc6c7c([nH]c6cc5OC35C2CC1C(C(=O)OC)N5c1ccccc14)CCC1(CC)CCCN(CC7)C1` (stereo not drawn): the LC retention time was 14.7 min.

In the case of `COC(=O)C1CC23CCCN4CCC5(c6ccccc6N(C)C15CC2)C43` (stereo not drawn), the LC retention time is 17.2 min.

In the case of `C=Cc1cncc2c(=O)n3c(cc12)-c1[nH]c2ccccc2c1CC3`, the LC retention time was 18.3 min.

Regarding `CCC1CN2CCC34C5=C(CC6(CC7CC(CC)N8CCC9(C6=Nc6ccccc69)C78)CN5c5ccccc53)C1CC24` (stereo not drawn), the LC retention time was 16.3 min.

`CC=C1CNC2Cc3c([nH]c4ccccc34)C(=O)CC1C2C(=O)OC` (stereo not drawn): the LC retention time was 13.4 min.

For `CCC12CC34CC(C(=O)OC)=C5Nc6ccccc6C56CCN3C1C1CC3(CC)C5OC5CN5CCC7(c8ccccc8N(C64)C17O2)C53` (stereo not drawn), the LC retention time is 25.8 min.

For `COC(=O)C1(COC(=O)C=Cc2ccccc2)C2CC(N(C)CC23OC3C)C23Nc4ccccc4C21CC(=O)O3` (stereo not drawn), the LC retention time is 29.9 min.

Consider `CC=C1CN2C3CC1C(C=O)C2Cc1c3[nH]c2ccccc12` (stereo not drawn), for which the LC retention time was 14.7 min.

As for `C=CC1CN2CCC1CC2c1[nH]c2ccccc2c1CCO` (stereo not drawn), the LC retention time was 16.7 min.

In the case of `COC(=O)C1=C2Nc3ccccc3C23CCN2CC4(CC5CC67CCOC6CCN6CCC8(c9cccc(OC)c9N(C4)C58O)C67)C4OCCC4(C1)C23` (stereo not drawn), the LC retention time was 23.3 min.

`CC=C1CN2CCC34c5cc(O)ccc5N(C)C35OCC4(C(=O)OC)C1CC25` (stereo not drawn): the LC retention time is 14.3 min.

With `CC=C1C[n+]2ccc3c([nH]c4ccccc43)c2CC1CCO` (stereo not drawn), the LC retention time is 16.7 min.

For `CCC1CC2CN3CCc4c([nH]c5ccccc45)C(C(=O)OC)(C2)C13` (stereo not drawn), the LC retention time was 16.9 min.

Regarding `CCC12CC(C(=O)OC)=C3Nc4ccccc4C34CCN(C(c3ccc5c(c3)C3CCN6CC7OC7C7(CC)CCC3(N5)C67)C3OC31)C42` (stereo not drawn), the LC retention time is 16 min.

Consider `COC(=O)C1C(O)CCC2CN3CCc4c([nH]c5ccc(C)cc45)C3CC21` (stereo not drawn), for which the LC retention time is 28.8 min.

Turning to `COC(=O)C1CC23CCC[N+]4([O-])CCC5(c6ccccc6N(C(=O)OC)C15CC2)C34` (stereo not drawn), the LC retention time was 17.2 min.

With `COC(=O)C1=COC(C)C2Cn3ccc4c5ccccc5nc-4c3CC12` (stereo not drawn), the LC retention time was 13.2 min.

For `CC=C1CN2C3CC1C(C1OCC4C5CC6N(CCC67c6ccccc6N1C47)CC5CC)C2Cc1c3[nH]c2ccccc12` (stereo not drawn), the LC retention time is 13.8 min.

On to `CC=C1CN2CCC34CC5C6CC7c8c(c9ccccc9n8C)CC(C6COC5(C)OC35C2CC1C(C(=O)OC)N5c1ccccc14)N7C` (stereo not drawn), for which the LC retention time is 17.4 min.

As to `COC(=O)C1CC23C=CCN4CCC5(c6ccccc6NC15C2C)C43` (stereo not drawn), the LC retention time is 13.5 min.

Take `CC=C1CN2CCC34C(=C(C(=O)OC)C1CC23)Nc1ccccc14` (stereo not drawn): the LC retention time was 11.1 min.

Consider `C=CC1CN2CCC3(C(=O)Nc4cc(O)ccc43)C2CC1CC1c2[nH]c3ccccc3c2CCN1C` (stereo not drawn), for which the LC retention time was 11.9 min.

With `CC=C1CN(C)C2Cc3c([nH]c4ccccc34)C(=O)CC1C2C(=O)OC` (stereo not drawn), the LC retention time is 15.3 min.

With `CC=C1CN2C3CC1C(C(=O)OC)C2Cc1c3[nH]c2ccccc12` (stereo not drawn), the LC retention time is 16.2 min.

Turning to `CC=C1CN(C)C2Cc3c([nH]c4ccccc34)C(c3ccc4c5c([nH]c4c3)C3CC4CC(CC)C3N(CC5)C4)CC1C2C(=O)OC` (stereo not drawn), the LC retention time was 15.3 min.

Turning to `CC=C1CN2C3CC45c6ccccc6N(C)C4C2CC1C3C5OC(=O)c1cc(OC)c(OC)c(OC)c1` (stereo not drawn), the LC retention time was 22.6 min.

Take `CC=C1CN2CCC3=C([NH2+]c4ccccc43)C2CC1C(Cc1cn2c(c3nc4ccccc4c1-3)CC1C(C(=O)OC)=COC(C)C1C2)C(=O)OC` (stereo not drawn): the LC retention time is 18.2 min.

With `CC=C1CN2C(C3C(=O)N4c5ccccc5C56CCN7CC8=CCOC3C(C8CC75)C46)CC34c5ccccc5N5C(=O)C=CC(C1CC23)C54` (stereo not drawn), the LC retention time is 16.3 min.

Consider `COC(=O)C1C2CC3c4[nH]c5cc(OC)ccc5c4CCN3CC2CC(OC(=O)c2cc(OC)c(OC)c(OC)c2)C1OC` (stereo not drawn), for which the LC retention time was 21.9 min.

In the case of `COc1cc2c(cc1OC)C13CCN(C)CC4=CCOC5CC(=O)N2C1C5C4CC3=O` (stereo not drawn), the LC retention time was 13.1 min.

As to `CC=C1CN2C3CC1C1(C(=O)OC)C2CC2(c4ccccc4N(C)C32)C1O` (stereo not drawn), the LC retention time was 12 min.

On to `C=CC1CN2CCc3c([nH]c4ccccc34)C2CC1CCO` (stereo not drawn), for which the LC retention time was 13.7 min.

`COC(=O)C1=COC(C)C2CN3CCc4c([nH]c5cc(OC)c(OC)cc45)C3CC12` (stereo not drawn): the LC retention time is 17 min.

As for `COc1cc2c(cc1OC)C13CCN4CC5=CCOC6CC(=O)N2C1C6C5CC43` (stereo not drawn), the LC retention time was 12.9 min.

On to `COC(=O)C1=C2Nc3ccccc3C23CCN2CC(C(C)O)C1CC23` (stereo not drawn), for which the LC retention time was 10.8 min.

In the case of `CCC1CN2CCc3c([nH]c4cc(OC)c(OC)cc34)C2CC1CCO` (stereo not drawn), the LC retention time was 16.6 min.

Turning to `CC=C1CN2C(C3=CC4C5CC6N(CCC67c6ccccc6N(C3=O)C47)CC5=CCO)CC34c5ccccc5N5C(=O)CC=C(C1CC23)C54` (stereo not drawn), the LC retention time is 15.3 min.

In the case of `CCC1CN2CCC34c5ccccc5NC3C(CO)C1CC24` (stereo not drawn), the LC retention time is 10.4 min.

As for `CC=C1CN2CCC34c5ccccc5N5C(=O)C(C6CC78c9ccccc9N9C(=O)C=CC(C%10CC7N6CC%10=CC)C98)=CC(C1CC23)C54` (stereo not drawn), the LC retention time was 15.3 min.

Take `CCC12CCCN3CCc4c(n(c5ccccc45)C(O)(C(=O)OC)C1)C32` (stereo not drawn): the LC retention time was 20 min.

As to `CC=C1CN2CCc3c([nH]c4ccccc34)C2CC1Cc1nccc2c1[nH]c1ccc(O)cc12` (stereo not drawn), the LC retention time is 16.6 min.

Consider `CC=C1C[N+]2(C)C3CC1C(C(=O)[O-])C2Cc1c3[nH]c2ccccc12` (stereo not drawn), for which the LC retention time is 15.6 min.

With `CC=C1C[N+]2(C)CCc3c([nH]c4ccccc34)C2CC1Cc1nccc2c1[nH]c1ccccc12` (stereo not drawn), the LC retention time was 15.5 min.

For the compound `CC=C1CN(C)CCC23C(=O)CC1C1COC(OC)C(=O)N(c4ccccc42)C13` (stereo not drawn), the LC retention time is 16 min.

For `C=CC1CN2CCc3c([nH]c4ccccc34)C2CC1C(=COC)C(=O)OC` (stereo not drawn), the LC retention time was 16.7 min.

`CN1CCC23C(=O)CC4C(=CCOC5CC(=O)N(c6ccccc62)C3C54)C1` (stereo not drawn): the LC retention time was 13.6 min.

Take `CC=C1C[N+]2(C)CCC34C(=C(C=O)C1CC32)Nc1ccccc14` (stereo not drawn): the LC retention time is 11.3 min.

In the case of `C=CC(CO)C1CC[N+]2(C)CCc3c([nH]c4ccccc34)C2C1` (stereo not drawn), the LC retention time is 14.2 min.

Regarding `Cc1[nH]ccc2c(C)c3nc4ccccc4c3cc12`, the LC retention time is 21.5 min.

As to `CC=C1C[n+]2ccc3c([nH]c4ccccc43)c2CC1C1=CN2c3ccccc3C34CCN5CC(=CC)C(CC53)C(C1O)C24` (stereo not drawn), the LC retention time is 15.2 min.

As for `CC=C1CN2C3CC1C1(C(=O)OC)C2CC2(c4ccccc4N(C)C32)C1OC(=O)C=Cc1cc(OC)c(OC)c(OC)c1` (stereo not drawn), the LC retention time is 17.8 min.

As to `CC=C(C=O)C1CC2c3c(c4ccccc4n3C(O)C1)CCN2C` (stereo not drawn), the LC retention time is 16.1 min.

Turning to `CCC1CC2CN3CCc4c([nH]c5ccc(OC)cc45)C(C(=O)OC)(C2)C13` (stereo not drawn), the LC retention time is 16.8 min.

With `COc1ccc2c(c1)N1C(=O)CC3OCC=C4CN5CCC26C5CC4C3C16` (stereo not drawn), the LC retention time was 16.8 min.

On to `C=CC1C(OC2OC(CO)C(O)C(O)C2O)OC2OC3CNC4CC1C2(C(=O)OC)C41Nc2ccccc2C31` (stereo not drawn), for which the LC retention time is 10.3 min.

Regarding `CCC1(O)CC2CN(CCc3c([nH]c4ccccc34)C(C(=O)OC)(c3cc4c(cc3OC)N(C)C3C(O)(C(=O)OC)C(OC(C)=O)C5(CC)C=CCN6CCC43C65)C2)C1` (stereo not drawn), the LC retention time was 18.6 min.
